≈ marks a conversion by molar mass, not a printed value.
How the values were obtained:
[1] = test system: Enterococcus faecalis; experiment: Antibacterial activity against vancomycin-resistant Enterococcus faecalis ATCC 51299 after 18 hrs by CLSI broth microdilution method; assay type: functional; conditions: ATCC 51299, 18 h
[2] = test system: Escherichia coli; experiment: Antibacterial activity against extended-spectrum beta-lactamase harboring Escherichia coli 12-15 after 18 hrs by CLSI broth microdilution method; assay type: functional; conditions: 12-15, 18 h
[3] = test system: Pseudomonas aeruginosa; experiment: Antibacterial activity against Pseudomonas aeruginosa ATCC 27853 after 18 hrs by CLSI broth microdilution method; assay type: functional; conditions: ATCC 27853, 18 h
[4] = test system: Klebsiella pneumoniae; experiment: Antibacterial activity against extended-spectrum beta-lactamase deficient Klebsiella pneumoniae 12-4 after 18 hrs by CLSI broth microdilution method; assay type: functional; conditions: 12-4, 18 h
[5] = test system: Enterococcus faecium; experiment: Antibacterial activity against vancomycin-resistant Enterococcus faecium 12-1 after 18 hrs by CLSI broth microdilution method; assay type: functional; conditions: 12-1, 18 h
[6] = test system: Staphylococcus aureus; experiment: Antibacterial activity against methicillin-resistant Staphylococcus aureus 12-33 after 18 hrs by CLSI broth microdilution method; assay type: functional; conditions: 12-33, 18 h
[7] = test system: Stenotrophomonas maltophilia; experiment: Antibacterial activity against Stenotrophomonas maltophilia ATCC 13636 after 18 hrs by CLSI broth microdilution method; assay type: functional; conditions: ATCC 13636, 18 h
[8] = test system: Klebsiella pneumoniae; experiment: Antibacterial activity against extended-spectrum beta-lactamase harboring Klebsiella pneumoniae ATCC 700603 after 18 hrs by CLSI broth microdilution method; assay type: functional; conditions: Klebsiella pneumoniae, 700603, 18 h
[9] = test system: Acinetobacter calcoaceticus; experiment: Antibacterial activity against Acinetobacter calcoaceticus ATCC 19606 after 18 hrs by CLSI broth microdilution method; assay type: functional; conditions: ATCC 19606, 18 h
[10] = test system: Klebsiella aerogenes; experiment: Antibacterial activity against Enterobacter aerogenes ATCC 13048 after 18 hrs by CLSI broth microdilution method; assay type: functional; conditions: ATCC 13048, 18 h
[11] = test system: Staphylococcus epidermidis; experiment: Antibacterial activity against methicillin-resistant Staphylococcus epidermidis 12-8 after 18 hrs by CLSI broth microdilution method; assay type: functional; conditions: 12-8, 18 h
[12] = test system: Enterococcus faecium; experiment: Antibacterial activity against vancomycin-resistant Enterococcus faecium ATCC 700221 after 18 hrs by CLSI broth microdilution method; assay type: functional; conditions: ATCC 700221, 18 h
[13] = test system: Enterobacter cloacae; experiment: Antibacterial activity against Enterobacter cloacae ATCC 43560 after 18 hrs by CLSI broth microdilution method; assay type: functional; conditions: ATCC 43560, 18 h
[14] = test system: Escherichia coli; experiment: Antibacterial activity against extended-spectrum beta-lactamase deficient Escherichia coli ATCC 25922 after 18 hrs by CLSI broth microdilution method; assay type: functional; conditions: ATCC 25922, 18 h
[15] = test system: Staphylococcus aureus; experiment: Antibacterial activity against methicillin-sensitive Staphylococcus aureus 15 after 18 hrs by CLSI broth microdilution method; assay type: functional; conditions: Staphylococcus aureus, 15, 18 h
[16] = test system: Enterococcus faecalis; experiment: Antibacterial activity against vancomycin-resistant Enterococcus faecalis 09-9 after 18 hrs by CLSI broth microdilution method; assay type: functional; conditions: 09-9, 18 h
[17] = test system: Serratia marcescens; experiment: Antibacterial activity against Serratia marcescens ATCC 21074 after 18 hrs by CLSI broth microdilution method; assay type: functional; conditions: ATCC 21074, 18 h
[18] = test system: Enterococcus faecium; experiment: Antibacterial activity against vancomycin-sensitive Enterococcus faecium 12-3 after 18 hrs by CLSI broth microdilution method; assay type: functional; conditions: 12-3, 18 h
[19] = test system: Klebsiella pneumoniae; experiment: Antibacterial activity against new delhi metallo-beta-lactamase-1 harboring Klebsiella pneumoniae ATCC BAA-2146 after 18 hrs by CLSI broth microdilution method; assay type: functional; conditions: ATCC BAA-2146, 18 h
[20] = test system: Klebsiella pneumoniae; experiment: Antibacterial activity against extended-spectrum beta-lactamase deficient Klebsiella pneumoniae 7 after 18 hrs by CLSI broth microdilution method; assay type: functional; conditions: Klebsiella pneumoniae, 7, 18 h
[21] = Cytotoxicity against HEK293T cells assessed as reduction in cell viability after 48 hrs by MTS assay; assay type: cell-based, HEK-293T; conditions: human
[22] = test system: Klebsiella pneumoniae; experiment: Antibacterial activity against extended-spectrum beta-lactamase harboring Klebsiella pneumoniae 12-8 after 18 hrs by CLSI broth microdilution method; assay type: functional; conditions: 12-8, 18 h
[23] = test system: Escherichia coli; experiment: Antibacterial activity against extended-spectrum beta-lactamase deficient Escherichia coli 12-14 after 18 hrs by CLSI broth microdilution method; assay type: functional; conditions: 12-14, 18 h
[24] = test system: Pseudomonas aeruginosa; experiment: Antibacterial activity against Pseudomonas aeruginosa 12-16 after 18 hrs by CLSI broth microdilution method; assay type: functional; conditions: 12-16, 18 h
[25] = test system: Citrobacter freundii; experiment: Antibacterial activity against Citrobacter freundii ATCC 43864 after 18 hrs by CLSI broth microdilution method; assay type: functional; conditions: ATCC 43864, 18 h
[26] = test system: Proteus mirabilis; experiment: Antibacterial activity against Proteus mirabilis 12-6 after 18 hrs by CLSI broth microdilution method; assay type: functional; conditions: 12-6, 18 h
[27] = test system: Staphylococcus aureus; experiment: Antibacterial activity against methicillin-sensitive Staphylococcus aureus ATCC 29213 after 18 hrs by CLSI broth microdilution method; assay type: functional; conditions: ATCC 29213, 18 h
[28] = test system: Enterococcus faecalis; experiment: Antibacterial activity against vancomycin-sensitive Enterococcus faecalis 12-5 after 18 hrs by CLSI broth microdilution method; assay type: functional; conditions: 12-5, 18 h
[29] = test system: Enterococcus faecalis; experiment: Antibacterial activity against vancomycin-sensitive Enterococcus faecalis ATCC 29212 after 18 hrs by CLSI broth microdilution method; assay type: functional; conditions: ATCC 29212, 18 h
[30] = test system: Staphylococcus aureus; experiment: Antibacterial activity against methicillin-resistant Staphylococcus aureus ATCC 33591 after 18 hrs by CLSI broth microdilution method; assay type: functional; conditions: ATCC 33591, 18 h
[31] = test system: Providencia rettgeri; experiment: Antibacterial activity against Providencia rettgeri ATCC 31052 after 18 hrs by CLSI broth microdilution method; assay type: functional; conditions: ATCC 31052, 18 h
[32] = test system: Staphylococcus epidermidis; experiment: Antibacterial activity against methicillin-sensitive Staphylococcus epidermidis ATCC 12228 after 18 hrs by CLSI broth microdilution method; assay type: functional; conditions: ATCC 12228, 18 h
[33] = test system: Pseudomonas aeruginosa; experiment: Antibacterial activity against Pseudomonas aeruginosa PAO1 after 18 hrs by CLSI broth microdilution method; assay type: functional; conditions: PAO1, 18 h
[34] = test system: Escherichia coli; experiment: Antibacterial activity against extended-spectrum beta-lactamase deficient Escherichia coli 1515 after 18 hrs by CLSI broth microdilution method; assay type: functional; conditions: Escherichia coli, 1515, 18 h
[35] = test system: Staphylococcus aureus; experiment: Antibacterial activity against methicillin-sensitive Staphylococcus aureus 12-28 after 18 hrs by CLSI broth microdilution method; assay type: functional; conditions: 12-28, 18 h
[36] = test system: Staphylococcus epidermidis; experiment: Antibacterial activity against methicillin-sensitive Staphylococcus epidermidis 12-6 after 18 hrs by CLSI broth microdilution method; assay type: functional; conditions: 12-6, 18 h
[37] = test system: Proteus vulgaris; experiment: Antibacterial activity against Proteus vulgaris ATCC 29905 after 18 hrs by CLSI broth microdilution method; assay type: functional; conditions: ATCC 29905, 18 h

| SMILES | MIC [1] [mg/L] | MIC [2] [mg/L] | MIC [3] [mg/L] | MIC [4] [mg/L] | MIC [5] [mg/L] | MIC [6] [mg/L] | MIC [7] [mg/L] | MIC [8] [mg/L] | MIC [9] [mg/L] | MIC [10] [mg/L] | MIC [11] [mg/L] | MIC [12] [mg/L] | MIC [13] [mg/L] | MIC [14] [mg/L] | MIC [15] [mg/L] | MIC [16] [mg/L] | MIC [17] [mg/L] | MIC [18] [mg/L] | MIC [19] [mg/L] | MIC [20] [mg/L] | also measured |
| --- | --- | --- | --- | --- | --- | --- | --- | --- | --- | --- | --- | --- | --- | --- | --- | --- | --- | --- | --- | --- | --- |
| N=C(c1ccc2cc(-c3ccc(-c4cc5ccc(C(=N)N6CCCC6)cc5[nH]4)cc3)[nH]c2c1)N1CCCC1 | 8 (≈ 16 µM) | 4 (≈ 7.99 µM) | > 128 | 8 (≈ 16 µM) | 4 (≈ 7.99 µM) | 2 (≈ 3.99 µM) | 16 (≈ 32 µM) | 16 (≈ 32 µM) | 16 (≈ 32 µM) | 8 (≈ 16 µM) | 1 (≈ 2 µM) | 4 (≈ 7.99 µM) | 8 (≈ 16 µM) | 4 (≈ 7.99 µM) | 2 (≈ 3.99 µM) | 4 (≈ 7.99 µM) | 64 (≈ 128 µM) | 4 (≈ 7.99 µM) | 8 (≈ 16 µM) | 8 (≈ 16 µM) | CC50 at 48 h [21]: 4.15 mg/L (≈ 8.29 µM); MIC [22]: 8 mg/L (≈ 16 µM); MIC [23]: 4 mg/L (≈ 7.99 µM); MIC [24]: 64 mg/L (≈ 128 µM); MIC [25]: 8 mg/L (≈ 16 µM); MIC [26]: 8 mg/L (≈ 16 µM); MIC [27]: 2 mg/L (≈ 3.99 µM); MIC [28]: 4 mg/L (≈ 7.99 µM); MIC [29]: 4 mg/L (≈ 7.99 µM); MIC [30]: 2 mg/L (≈ 3.99 µM); MIC [31]: 8 mg/L (≈ 16 µM); MIC [32]: 0.25 mg/L (≈ 0.499 µM); MIC [33]: > 128 mg/L; MIC [34]: 4 mg/L (≈ 7.99 µM); MIC [35]: 2 mg/L (≈ 3.99 µM); MIC [36]: 0.25 mg/L (≈ 0.499 µM); MIC [37]: 8 mg/L (≈ 16 µM) |
| CN(C)C(=N)c1ccc2cc(-c3cncc(-c4cc5ccc(C(=N)N(C)C)cc5[nH]4)c3)[nH]c2c1 | 2 (≈ 4.45 µM) | 1 (≈ 2.22 µM) | 16 (≈ 35.6 µM) | 8 (≈ 17.8 µM) | 1 (≈ 2.22 µM) | 0.5 (≈ 1.11 µM) | 8 (≈ 17.8 µM) | 8 (≈ 17.8 µM) | 8 (≈ 17.8 µM) | 4 (≈ 8.9 µM) | 0.5 (≈ 1.11 µM) | 2 (≈ 4.45 µM) | 4 (≈ 8.9 µM) | 2 (≈ 4.45 µM) | 0.5 (≈ 1.11 µM) | 2 (≈ 4.45 µM) | 16 (≈ 35.6 µM) | 2 (≈ 4.45 µM) | 4 (≈ 8.9 µM) | 4 (≈ 8.9 µM) | CC50 at 48 h [21]: 1.75 mg/L (≈ 3.89 µM); MIC [22]: 4 mg/L (≈ 8.9 µM); MIC [23]: 1 mg/L (≈ 2.22 µM); MIC [24]: > 64 mg/L; MIC [25]: 8 mg/L (≈ 17.8 µM); MIC [26]: 8 mg/L (≈ 17.8 µM); MIC [27]: 0.5 mg/L (≈ 1.11 µM); MIC [28]: 2 mg/L (≈ 4.45 µM); MIC [29]: 2 mg/L (≈ 4.45 µM); MIC [30]: 0.5 mg/L (≈ 1.11 µM); MIC [31]: 2 mg/L (≈ 4.45 µM); MIC [32]: 0.25 mg/L (≈ 0.556 µM); MIC [33]: > 64 mg/L; MIC [34]: 2 mg/L (≈ 4.45 µM); MIC [35]: 0.5 mg/L (≈ 1.11 µM); MIC [36]: 0.25 mg/L (≈ 0.556 µM); MIC [37]: 4 mg/L (≈ 8.9 µM) |
| COCCNC(=N)c1ccc2cc(-c3ccc(-c4cc5ccc(C(=N)NCCOC)cc5[nH]4)cc3)[nH]c2c1 | 0.5 (≈ 0.983 µM) | 4 (≈ 7.86 µM) | 16 (≈ 31.5 µM) | 8 (≈ 15.7 µM) | 0.5 (≈ 0.983 µM) | 0.25 (≈ 0.492 µM) | 16 (≈ 31.5 µM) | 16 (≈ 31.5 µM) | 32 (≈ 62.9 µM) | 8 (≈ 15.7 µM) | 0.125 (≈ 0.246 µM) | 0.5 (≈ 0.983 µM) | 2 (≈ 3.93 µM) | 2 (≈ 3.93 µM) | 0.25 (≈ 0.492 µM) | 1 (≈ 1.97 µM) | 16 (≈ 31.5 µM) | 0.5 (≈ 0.983 µM) | 8 (≈ 15.7 µM) | 8 (≈ 15.7 µM) | CC50 at 48 h [21]: 3.95 mg/L (≈ 7.77 µM); MIC [22]: 8 mg/L (≈ 15.7 µM); MIC [23]: 2 mg/L (≈ 3.93 µM); MIC [24]: 32 mg/L (≈ 62.9 µM); MIC [25]: 2 mg/L (≈ 3.93 µM); MIC [26]: 32 mg/L (≈ 62.9 µM); MIC [27]: 0.25 mg/L (≈ 0.492 µM); MIC [28]: 2 mg/L (≈ 3.93 µM); MIC [29]: 0.5 mg/L (≈ 0.983 µM); MIC [30]: 0.25 mg/L (≈ 0.492 µM); MIC [31]: 8 mg/L (≈ 15.7 µM); MIC [32]: 0.125 mg/L (≈ 0.246 µM); MIC [33]: 32 mg/L (≈ 62.9 µM); MIC [34]: 8 mg/L (≈ 15.7 µM); MIC [35]: 0.25 mg/L (≈ 0.492 µM); MIC [36]: 0.125 mg/L (≈ 0.246 µM); MIC [37]: 16 mg/L (≈ 31.5 µM) |
